Source: patent publication US20030158126A1, “Method of treatment for fungal infections with a synergistic formulation of antifungal agents” (priority 2002, published 2003)

Legend:
Candida albicans [1] = assay: Synergism of menthol, menthyl acetate or their ratios with antifungal drugs (MIC, FIC, fold enhancement); format: cell-based, Candida albicans (MTCC1637 equivalent to ATCC 18804); details: for synergism of the individual compound with Clotrimazole, Amphotericin B and Nystatin: individual compound at a concentration of 0.25 μg/ml
Description: In the present invention Candida albicans (MTCC1637 equivalent to ATCC 18804)=Interdigital mycoses, Neotype strain, production of citric acid) is used for all the experimentations (MTCC=Microbial type culture collection, Institute of Microbial Technology, Chandigarh, India). […]
The fractional inhibitory concentrations (FIC) are calculated by dividing the MIC of the combination with the MIC of antifungal compound alone. The enhancement is calculated by dividing the MIC of the antifungal compound with the MIC of the combination. […] Similarly, the maximum enhancement of Amphotericin is detected for the same set of ratios (2114, 2115, 2116). The enhancement of Nystatin is detected in the combinations with ratios 2112 and 2114. (TABLE 3)

Candida albicans [2] = assay: Minimum inhibitory concentration (MIC) in broth culture of Candida albicans; format: cell-based, Candida albicans (MTCC1637 equivalent to ATCC 18804); details: for activity of the components at the concentrations used: proportional concentrations within 0.25 μg/ml
Description: In the present invention Candida albicans (MTCC1637 equivalent to ATCC 18804)=Interdigital mycoses, Neotype strain, production of citric acid) is used for all the experimentations (MTCC=Microbial type culture collection, Institute of Microbial Technology, Chandigarh, India).
The minimum inhibitory concentrations (MIC) of the compound menthyl acetate and menthol is determined in broth culture of Candida albicans and is estimated to be […] and 500 μg/ml respectively.
A combination of the two compounds menthol and menthyl acetate in 1:1 ratio is evaluated for synergistic action if any. […] Therefore this combination is further tested for activity against Candida in combination with known antifungal drugs.
Following ratios are prepared by dissolving menthol in menthyl acetate. The ratios are tested for minimum inhibitory concentration in broth cultures of Candida albicans. As mentioned in the TABLE 1, the MIC of ratios are several folds lower than the additive MIC of individual compounds. Identification numbers of the ratios are the numbers given to identify the combination and mean nothing more than this. […] All these combinations are found to be synergistic for antifungal activities.

[3] = antifungal drug alone or with menthol/menthyl acetate combination at 0.25 μg/ml

C[C@@H]1[C@H](O)[C@@H](C)/C=C/C=C/CC/C=C/C=C/C=C/C=C/C(O[C@H]2O[C@H](C)[C@@H](O)[C@H](N)[C@@H]2O)CC2O[C@](O)(CC(O)C(O)CCC(O)CC(O)CC(O)CC(=O)O[C@H]1C)CC(O)C2C(=O)O (stereo partly drawn) [Nystatin (N), Nystatin]
MIC (Candida albicans [1]; Nystatin (N) + Menthol (μg/ml)): 5.0 µg/mL
MIC (Candida albicans [1]; Nystatin (N) + Menthyl acetate (μg/ml)): 5.0 µg/mL
MIC (Candida albicans [1]; [3]): 5.0 µg/mL

CC(=O)OC1CC(C)CCC1C(C)C (stereo not drawn) [menthyl acetate]
minimum inhibitory concentrations (MIC) (Candida albicans [2]; broth culture of Candida albicans, printed as a dilution fraction): 1/400
activity of the components at the concentrations used (Candida albicans [2]): do not have any activity
synergism of the individual compound with Clotrimazole, Amphotericin B and Nystatin (Candida albicans [1]): neither menthol nor menthyl acetate could lower the MIC

CC1CCC(C(C)C)C(O)C1 (stereo not drawn) [menthol]
MIC (Candida albicans [2]; broth culture of Candida albicans, read-out: minimum inhibitory concentrations (MIC)): 500 µg/mL
activity of the components at the concentrations used (Candida albicans [2]): do not have any activity
synergism of the individual compound with Clotrimazole, Amphotericin B and Nystatin (Candida albicans [1]): neither menthol nor menthyl acetate could lower the MIC

Clc1ccccc1C(c1ccccc1)(c1ccccc1)n1ccnc1 [Clotrimazole (C), Clotrimazole]
MIC (Candida albicans [1]; Candida albicans, Clotrimazole (C) + Menthyl acetate (μg/ml), read-out: MIC): 1.25 µg/mL
MIC (Candida albicans [1]; Clotrimazole (C) + Menthol (μg/ml)): 1.25 μ/ml
MIC (Candida albicans [1]; [3]): 1.25 µg/mL

C[C@@H]1[C@H](O)[C@@H](C)/C=C/C=C/C=C/C=C/C=C/C=C/C=C/[C@H](O[C@@H]2O[C@H](C)[C@@H](O)[C@H](N)[C@@H]2O)C[C@@H]2O[C@](O)(C[C@@H](O)C[C@@H](O)[C@H](O)CC[C@@H](O)C[C@@H](O)CC(=O)O[C@H]1C)C[C@H](O)[C@H]2C(=O)O [Amphotericin B (A), Amphotericin B]
MIC (Candida albicans [1]; Amphotericin B (A) + Menthyl acetate (μg/ml)): 2.5 µg/mL
MIC (Candida albicans [1]; Candida albicans, Amphotericin B (A) + Menthol (μg/ml), read-out: MIC): 2.5 µg/mL
MIC (Candida albicans [1]; [3]): 2.5 µg/mL
